Entries after “also recorded” stand apart in the source; their conditions may differ. Blank lines part the entries; values can stand above or below the molecule they belong to. Non-standard residues stand in square brackets, D forms with d. Residues, ends and D or L forms follow the SMILES beside them. 1Nal = N[C@@H](Cc1cccc2ccccc12)C(=O)O; NMeF = CN[C@@H](Cc1ccccc1)C(=O)O; Cha = N[C@@H](CC1CCCCC1)C(=O)O; dCha = N[C@H](CC1CCCCC1)C(=O)O
What was measured:
Type in all cases: cell-based
C5a receptor = biological target: T1, C5a receptor (Homo sapiens, UniProt P21730); assay: Agonist activity over all C5a induced responses (chemotaxis, MPO release, calcium flux, GTPase activity, GTPγ-S binding); details: C089 tested up to and including 100 μM
T1 construct: followed by a 20 μL aliquot of neutrophil membrane; endogenous in cells
T1 sequence (P21730 1-350): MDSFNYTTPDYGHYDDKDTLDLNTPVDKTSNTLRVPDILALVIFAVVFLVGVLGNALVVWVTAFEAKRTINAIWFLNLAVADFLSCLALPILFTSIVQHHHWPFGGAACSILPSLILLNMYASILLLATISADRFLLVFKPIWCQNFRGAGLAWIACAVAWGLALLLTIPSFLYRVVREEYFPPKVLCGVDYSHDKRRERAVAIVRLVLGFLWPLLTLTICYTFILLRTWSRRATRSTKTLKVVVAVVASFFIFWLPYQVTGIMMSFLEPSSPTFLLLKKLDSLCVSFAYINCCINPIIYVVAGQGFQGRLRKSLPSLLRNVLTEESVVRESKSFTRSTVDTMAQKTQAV
Method: The EC50 measures the concentration of compound at which a 50% maximal stimulation of a given biological response induced by C5a is achieved (chemotaxis, MPO release, calcium flux, GTPase activity or GTPγ-S binding), and the IC50 is the concentration at which 50% maximal inhibition of C5a binding is achieved.
(§1) This assay was performed on human neutrophils as previously reported and it is a measure of C5a or peptide induced exocytosis (Rollins, T. E. and Springer, M. S. (1985) J. Biol. Chem. 260, 7157-7160).
(§2) Ligand induced Ca^2+ fluxes were measured by following the change in Indo-1 induced fluorescence on a FACS analyzer as previously described (Van Riper, G., Siciliano, S. J., Fischer, P. A., Meurer, R., Springer, M. S. and Rosen, H. (1993) J. Exp. Med. 177, 851-856.).
This assay is a modification of the procedure described by Sims et. al. (Sims, T. J., Geissler, F. T. and Page, R. C. (1985) J. lmmunol. Meth. 78, 279-291 ). Chemotaxis was assayed in a 48 well Neuro Probe chamber (Neuro Probe, Bethesda, MD) using ^51 Cr-labelled cells. […] After preforming a gradient for 30 minutes at 37° C., 2×10^5 labelled cells were added to the upper chamber and allowed to migrate at 37° C. for one hour. The upper two polycarbonate filters were then discarded and the formed wells cut from the nitrocellulose membrane. The radioactivity present in these filters is a measure of the number of cells that migrated through both polycarbonate filters.
The method of Kupper et al. (Kupper, R. W., Dewald, B., Jakobs, K. H., Baggiolini, M. and Gierschik, P. (1992) Biochem. J. 282, 429-434) was adapted for use in microtiter plates. Neutrophil membranes were suspended in 50 mM triethanolamine-HCl, 5 mM MES, pH 7.3, containing 1 mM EDTA, 5 mM MgCl2, 143 mM NaCl, 0.16 % BSA, 1 mM ouabain, 1 mM AMP-PNP, 0.5 mM ATP, 2.5 U/mL creatine phosphokinase,. 10 mM creatine phosphate, 0.1 mM PMSF and 10 ng/mL each of leupeptin, aprotinin and chymostatin. 50 μL of membranes containing 1-5 μg protein were added to 50 μL of the same buffer containing the test agent and 0.25 μM [γ-^32 P]-GTP (2,000 cpm/pmol) in the wells of a U-shaped microtiter plate. After incubation for 15-30 rain at 29° C., 100 μL of a 10% (w/v) charcoal suspension in 100 mM H3 PO4 was added and plates were centrifuged at 2000 rpm for 5 min. 100 μL of the supernatant was transferred to an Optiplate microtiter plate and 100 μL of Microscint-40 scintillation cocktail was added. Plates were counted in a Packard TopCount microtiter plate counter.

human neutrophils [1] = assay: Ligand induced Ca2+ flux (Indo-1 fluorescence); details: FIG. 5B
Method: (§3) FIG. 5A and 5B. Degranulation and Ca^2+ responses to the hexapeptides. […] The ED50 's for the degranulation are: C5a, 0.5 nM; C028, 0.2 μM; C026, 1 μM. C5a, maximally, released 57% of the total cellular content of MPO. The ability of these molecules to elicite a Ca^2+ -flux is shown in B. The concentrations used for C028 (10 μM), C026 (10 μM), C061 (100 μM) are those which produce a maximal flux. A saturating concentration was also used for C5a (1 nM).
as §2
FIG. 5B compares the maximal effects of each peptide (10-100 μM) with the response induced by C5a (1 nM).

human neutrophils [2] = assay: Degranulation, myeloperoxidase (MPO) release from human neutrophils (agonism); details: for EC50: MPO release, read-out: ED50 for degranulation; for EC50/IC50 (degranulation/binding): ratio degranulation EC50 to binding IC50
Method: as §3, §1
The functional properties of two of the peptides, C026, and C028, were originally described by Mollison et. al (Mollison, K. W., Krause, R. A., Fey, T. A., Miller, L., Wiedeman, P. e., Kawai, M., Lane, B., Luly, J. R. and Carter, G. W. (1992) FASEB J. 6, A2058). […] We have reinvestigated the degranulating activities of these peptides as measured by the release of myeloperoxidase (MPO) from human neutrophils. […] The EC50 /IC50 (degranulation/binding) for C028 is 8, the same as that measured for C5a (Table II, FIG. 5A). […] However, the difference in activity between C026 and C028 is significant and reproducible. Since the structural difference between the two is the substitution of an aromatic for an aliphatic residue (Phe for Cha) we chose to make additional changes at position 5 which further increased aromaticity. […] To further examine whether the differences in activity between the peptides reflects the increased aromaticity we synthesized a molecule with Leu, an aliphatic amino acid, at position 5 (C068, Table II).

[3] = maximal effects, peptide 10-100 μM vs 1 nM C5a

Molecule: CN[C@@H](Cc1ccccc1)C(=O)N[C@@H](CCCCN)C(=O)N1CCC[C@H]1C(=O)N[C@H](CC1CCCCC1)C(=O)N[C@@H](Cc1cccc2ccccc12)C(=O)N[C@H](CCCNC(=N)N)C(=O)O [C061] (H-[NMeF]KP[dCha][1Nal][dR]-OH)
concentration which produces a maximal Ca2+ flux (human neutrophils [1]): 100 µM | Ca2+ response in words (human neutrophils [1]; [3]): only a very small increase in intracellular Ca^2+ levels; also recorded: small increase in the level of intracellular Ca^2+ | degranulating activity in words (human neutrophils [2]; FIG. 5A): totally devoid of degranulating activity

Molecule: CN[C@@H](Cc1ccccc1)C(=O)N[C@@H](CCCCN)C(=O)N1CCC[C@H]1C(=O)N[C@H](CC1CCCCC1)C(=O)N[C@@H](Cc1c[nH]c2ccccc12)C(=O)N[C@H](CCCNC(=N)N)C(=O)O [C089]
Ca2+ response in words (human neutrophils [1]; [3]): fails to stimulate a detectable change in Ca^2+ level | degranulating activity in words (human neutrophils [2]; FIG. 5A): totally devoid of degranulating activity | agonist activity in words, all responses (C5a receptor): without agonist activity in any of the assays; also recorded: do not induce a response; also recorded: completely devoid of agonist activity

B1: C5a: 74 amino acid protein derived from the fifth component of serum complement during complement activation (protein, UniProt P01031 678-751, looked up)
C5a anaphylatoxin: TLQKKIEEIAAKYKHSVVKKCCYDGACVNNDETCEQRAARISLGPRCIKAFTECCVVASQLRANISHKDMQLGR
modifications: C5a anaphylatoxin
Ca2+ response in words (human neutrophils [1]; [3]): comparable elevations in Ca^2+ level | release of total cellular MPO (human neutrophils [2]; 0.4 nM C5a or 8 nM IL-8, cells without C089): 22% | EC50 (human neutrophils [2]; FIG. 5A): 0.5 nM | maximal release of total cellular content of MPO (human neutrophils [2]; maximal, FIG. 5A): 57% | EC50/IC50 (degranulation/binding) (human neutrophils [2]): 8

The next lines start with results.

agonist activity in words, all responses (C5a receptor): C5a agonist
Molecule: CC(C)C[C@H](NC(=O)[C@H](CC1CCCCC1)NC(=O)[C@H](CC1CCCCC1)NC(=O)[C@H](C)NC(=O)[C@H](CCCCN)NC(=O)[C@H](Cc1ccccc1)NC(=O)[C@@H](N)Cc1ccc(O)cc1)C(=O)N[C@H](Cc1ccccc1)C(=O)N[C@@H](CCCNC(=N)N)C(=O)O [C009, Tyr Phe Lys Ala Cha Cha Leu dPhe Arg] (H-YFKA[Cha][Cha]L[dF]R-OH)

EC50 (human neutrophils [2]; FIG. 5A): 1000 nM | EC50/IC50 (degranulation/binding) (human neutrophils [2]): 20
Molecule: CN[C@@H](Cc1ccccc1)C(=O)N[C@@H](CCCCN)C(=O)N1CCC[C@H]1C(=O)N[C@H](CC1CCCCC1)C(=O)N[C@@H](Cc1ccccc1)C(=O)N[C@H](CCCNC(=N)N)C(=O)O [C026, NMeF--K--P-dCha-F-dR] (H-[NMeF]KP[dCha]F[dR]-OH)
concentration which produces a maximal Ca2+ flux (human neutrophils [1]): 10 µM | Ca2+ response relative to C028 and C5a (human neutrophils [1]; [3]): 50% | degranulating activity in words (human neutrophils [2]; FIG. 5A): partial agonist for degranution induction; also recorded: retains substantial degranulating activity | MPO release relative to the maximal release produced by C5a or C028 (human neutrophils [2]; maximal effect, FIG. 5A): 50%

EC50 (human neutrophils [2]; FIG. 5A): 200 nM | EC50/IC50 (degranulation/binding) (human neutrophils [2]): 8
Molecule: CN[C@@H](Cc1ccccc1)C(=O)N[C@@H](CCCCN)C(=O)N1CCC[C@H]1C(=O)N[C@H](CC1CCCCC1)C(=O)N[C@@H](CC1CCCCC1)C(=O)N[C@H](CCCNC(=N)N)C(=O)O [C028, MePhe Lys Pro dCha Cha dArg] (H-[NMeF]KP[dCha][Cha][dR]-OH)
concentration which produces a maximal Ca2+ flux (human neutrophils [1]): 10 µM | Ca2+ response in words (human neutrophils [1]; [3]): comparable elevations in Ca^2+ level | degranulating activity in words (human neutrophils [2]; FIG. 5A): full agonist for degranulation | agonist activity in words, all responses (C5a receptor): almost complete agonists of all of these responses

Reference: patent US5614370A, “Assay to identify human C5a antagonists and agonists” (Merck & Co., Inc., priority 1994, dated 1997)
